Data: patent publication US20050250093A1, “Hepatitis c virus sub-genomic replicons” (priority 2002, published 2005)

Assays:
Huh-7 cells [1] = experiment: Analysis of replicon copy number by TaqMan; assay type: cell-based, human; conditions: real-time PCR with primers and probes in the neo gene on total RNA from replicon cells
Description: Next, replicon RNA was quantified by TaqMan. Real-time PCR was conducted with primers and probes in the neo gene on total RNA isolated from the replicon cells and on standard neo containing DNA. Copy numbers of the replicon were calculated based on standard curve generated from known amount of in vitro transcribed RNA. J4 M/S contained about 147 copies/cell, BB7-F1 contained 57 copies/cell, HCV 1a replicon has 165 copies/cell, BB7/H77NS5B has 29 copies/cell. For a positive control, HCV BB7 replicon that has 1500 copies/cell while Huh-7 cells served as negative controls.
Cells were trypinized and counted to determine cell number. The total cellular RNA was isolated using RNeasy Mini Kit (Qiagen) following the manufacturer's protocol. The RNA was stored at −80° C. or assayed by TaqMan quantitative RT-PCR. For analysis by TaqMan PCR, a master mix was prepared using TaqMan EZ RT-PCR Kit (Applied Biosystems #403028), TaqMan PDAR Control Reagent Human Cyclophilin (Applied Biosystems #4310883E), custom primer Neo^R fwd CCG GCT ACC TGC CCA TTC [SEQ ID NO:28] […] Data was analyzed by leaving the baseline to default level on both layers, and set a threshold to an equal value for both dye layers. […] The copy number for each replicon sample was calculated by taking the sample's Ct value, minus the line intercept, divided by the slope of the line.

Huh-7 cells [2] = experiment: Stable replication / G418 resistance after electroporation of replicon RNA into Huh-7 cells; assay type: cell-based, human; conditions: replicon RNA prepared in vitro, G418 selection
Description: In the present invention, certain chimeric replicon constructs were generated from pHCVrep1b(BB7) with sequences substituted with either type 1aHCV H77 sequence or by HCV type 1b J4 strain sequence. […] The methods for constructing these replicons are described herein.
RNA transcribed from the above replicon DNA was electroporated into Huh-7 cells according to the procedures in the examples. G418 resistant cells were obtained by incubating the cells in G418-containing media. Once the cells were amplified, total cellular protein was separated on SDS-PAGE and probed by NS5A serum to assess whether HCV proteins were expressed. As predicted, all three replicon cell lines expressed NS5A as shown on figure. Genomic DNA and RNA were also isolated from each replicon cell lines. PCR reactions on genomic DNA were carried out to assess the possibility that the G418 resistance was due to expression of the phosphatransferase from integrated neo resistant gene into the Huh-7 cell genome. […] Therefore, the date indicate that it is unlikely that the resistance is due to integration of residue DNA in our RNA preparation into the genome of Huh-7 cells.
Five […]g of replicon RNA was electroporated into 5×10^6 cells of the hepatoma cell line, Huh-7. […] Huh-7 cells were pelleted, washed, counted and resuspended to a final concentration of 1×10^7 cells/ml in Opti-MEM media (Invitrogen). […]

type 1a replicon system = experiment: Susceptibility of the type 1a replicon system to interferon and antiviral agents; assay type: cell-based, HCV; conditions: type 1a replicon vs type 1b replicon system

Substance | replicon copy number (Huh-7 cells [1]) [copies/cell] | generation of stable cell lines / stable replication after transfection into Huh-7 cells (Huh-7 cells [2]) | susceptibility compared with the type 1b replicon system (type 1a replicon system)
HCV 1a replicon | 165 | able to stably replicate and confer resistance to G418 | –
interferon | – | – | similar
